Data taken from ChEMBL document CHEMBL5244253, “Recent research progress on natural small molecule bibenzyls and its derivatives in Dendrobium species” (Eur J Med Chem, 2020).
pIC50: −log10 of the molar value. Values belong to the molecule of their own block, whether it stands above or below them.

Columns and labels:
[1] = Antioxidant activity assessed as DPPH radical scavenging activity incubated for 30 mins by spectrophotometric analysis; type: functional
THP-1 = test: Anti-cancer activity against human THP-1 cells; type: functional, cell-based
FaDu = test: Cytotoxicity against human FaDu cells assessed as cell viability incubated for 24 hrs by CCK-8 assay; type: functional, cell-based
HL-60 = test: Anti-cancer activity against human HL-60 cells; type: functional, cell-based
NCI-H23 = test: Anti-cancer activity against human NCI-H23 cells; type: functional, cell-based
NCI-H460 [2] = test: Cytotoxicity against human NCI-H460 cells assessed as cell viability by MTT assay; type: functional, cell-based
[3] = Permeability of the compound by PAMPA-BBB assay; type: ADME; settings: read-out: permeability
PC-12 [4] = test: Neuroprotection against Amyloid beta (25 to 35)-induced toxicity in rat PC-12 cells assessed as increase in cell viability at 25 uM for 24 hrs by MTT assay relative to control; type: functional
PC-12 [5] = test: Neuroprotection against Amyloid beta (25 to 35)-induced toxicity in rat PC-12 cells assessed as increase in cell viability at 50 uM for 24 hrs by MTT assay relative to control; type: functional
PC-12 [6] = test: Neuroprotection against Amyloid beta (25 to 35)-induced toxicity in rat PC-12 cells assessed as increase in cell viability at 10 uM for 24 hrs by MTT assay relative to control; type: functional
Bel-7402 = test: Anti-cancer activity against human Bel-7402 cells; type: functional, cell-based
HepG2 [7] = test: Anti-cancer activity against human HepG2 cells; type: functional, cell-based
[8] = biological target: Tyrosine-protein phosphatase non-receptor type 1 (Homo sapiens, UniProt P18031); test: Inhibition of PTP1B (unknown origin)
Chain of Tyrosine-protein phosphatase non-receptor type 1 (P18031 whole entry): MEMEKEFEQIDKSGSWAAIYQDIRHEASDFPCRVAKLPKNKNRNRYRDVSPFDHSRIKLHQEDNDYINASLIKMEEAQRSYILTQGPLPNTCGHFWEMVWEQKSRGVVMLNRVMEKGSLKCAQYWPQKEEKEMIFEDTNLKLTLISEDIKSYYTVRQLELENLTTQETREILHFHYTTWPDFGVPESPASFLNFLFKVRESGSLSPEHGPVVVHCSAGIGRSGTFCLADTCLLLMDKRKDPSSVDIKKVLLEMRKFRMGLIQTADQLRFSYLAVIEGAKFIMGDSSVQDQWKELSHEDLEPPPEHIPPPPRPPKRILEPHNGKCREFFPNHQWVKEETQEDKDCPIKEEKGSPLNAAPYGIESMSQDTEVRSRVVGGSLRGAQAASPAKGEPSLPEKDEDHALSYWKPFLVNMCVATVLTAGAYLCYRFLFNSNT

SGC-7901 = test: Anti-cancer activity against human SGC-7901 cells; type: functional, cell-based
K562 = test: Anti-cancer activity against human K562 cells; type: functional, cell-based
KB = test: Anti-cancer activity against human KB cells; type: functional, cell-based
MCF7 [9] = test: Anti-cancer activity against human MCF7 cells; type: functional, cell-based
NCI-H187 = test: Anti-cancer activity against human NCI-H187 cells; type: functional, cell-based
NCI-H460 [10] = test: Anti-cancer activity against human NCI-H460 cells; type: functional, cell-based
MCF7 [11] = test: Cytotoxicity against human MCF7 cells assessed as cell viability incubated for 48 hrs by MTS assay; type: functional, cell-based; settings: MCF7, 48 h
RAW264.7 [12] = test: Antiinflammatory activity in mouse RAW264.7 cells assessed as inhibition of H2O2-induced intracellular ROS production at 50 ug/ml measured after 24 hrs by DCFH-DA staining based fluorescence assay; type: functional
RAW264.7 [13] = test: Antiinflammatory activity in mouse RAW264.7 cells assessed as inhibition of LPS-induced NO production at 50 ug/ml measured after 24 hrs; type: functional
RAW264.7 [14] = test: Antiinflammatory activity in mouse RAW264.7 cells assessed as inhibition of LPS-induced TNFalpha secretion at 50 ug/ml measured after 24 hrs; type: functional
MDA-MB-231 = test: Cytotoxicity against human MDA-MB-231 cells assessed as cell viability incubated for 72 hrs by MTT assay; type: functional, cell-based; settings: MDA-MB-231, 72 h
HT-29 = test: Cytotoxicity against human HT-29 cells assessed as cell viability incubated for 72 hrs by MTT assay; type: functional, cell-based; settings: HT-29, 72 h
Alpha amylase = Alpha amylase (Homo sapiens, UniProt P0DUB6); test: Inhibition of alpha-amylase (unknown origin) by HPLC analysis
Chain of Alpha amylase (P0DUB6 whole entry): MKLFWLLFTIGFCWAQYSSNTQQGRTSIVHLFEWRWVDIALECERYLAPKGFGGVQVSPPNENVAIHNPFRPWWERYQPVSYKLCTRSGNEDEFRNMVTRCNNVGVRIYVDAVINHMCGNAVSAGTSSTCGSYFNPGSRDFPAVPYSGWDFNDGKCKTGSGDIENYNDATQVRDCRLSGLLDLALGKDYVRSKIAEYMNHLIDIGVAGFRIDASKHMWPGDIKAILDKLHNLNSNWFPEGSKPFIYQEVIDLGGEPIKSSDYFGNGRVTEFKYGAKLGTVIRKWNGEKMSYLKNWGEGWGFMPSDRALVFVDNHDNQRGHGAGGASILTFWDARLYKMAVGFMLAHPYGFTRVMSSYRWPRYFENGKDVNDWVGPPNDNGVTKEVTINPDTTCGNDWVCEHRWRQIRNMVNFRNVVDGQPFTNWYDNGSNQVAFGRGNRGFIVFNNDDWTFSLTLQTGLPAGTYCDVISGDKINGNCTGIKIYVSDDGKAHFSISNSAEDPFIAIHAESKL

HepG2 [15] = test: Cytotoxicity against human HepG2 cells assessed as cell viability incubated for 72 hrs by MTT assay; type: functional, cell-based; settings: HepG2, 72 h

SMILES: COc1cc(O)cc(CCc2ccc(O)c(OC)c2)c1 [GIGANTOL]
- pIC50 [1]: 4.75
- pIC50 (Bel-7402): 4.89
- pIC50 (THP-1): 4.63
- pIC50 (HepG2 [7]): 5.03
- pIC50 [8]: 4.13
- pIC50 (SGC-7901): 4.76
- pIC50 (K562): 4.19
- pIC50 (KB): 4.21
- pIC50 (HL-60): 4.97
- pIC50 (MCF7 [9]): 4.17
- pIC50 (NCI-H187): 3.63
- pIC50 (NCI-H460 [10]): 4.11

SMILES: COc1ccc(CCc2cc3c(c(OC)c2)C[C@@H](CO)[C@H](c2ccc(O)c(OC)c2)C3)cc1
- pIC50 (MCF7 [11]): 4.41

SMILES: COc1cc(CC2c3cc(O)c(O)c(OC)c3Oc3cc(O)c4c(c32)CCc2cc(O)ccc2-4)ccc1O (stereo not drawn)
- inhibition at 50 µg/mL (RAW264.7 [12]): 65%
- inhibition at 50 µg/mL (RAW264.7 [13]): 65%
- inhibition at 50 µg/mL (RAW264.7 [14]): 70%

The next lines start with results.

- pIC50 [1]: 4.77
- pIC50 (THP-1): 3.65
- pIC50 (HL-60): 7.09
- pIC50 (NCI-H23): 4.48
SMILES: COc1cc(CCc2cc(OC)c(O)c(OC)c2)ccc1O [MOSCATILIN]
- pIC50 (FaDu): 5.59

- pIC50 [1]: 4.85
- Papp [3]: 4.1 ×10⁻⁶ cm/s
- pIC50 (NCI-H23): 3.84
SMILES: COc1ccc(CCc2cc(OC)c(O)c(OC)c2)cc1OC
- pIC50 (NCI-H460 [2]): 3.90
- Activity (PC-12 [4]): 55.02%
- Activity (PC-12 [5]): 58.89%
- Activity (PC-12 [6]): 52.72%

- pIC50 (HL-60): 4.97
- IC50 (Alpha amylase): 5990 µM
SMILES: COc1ccc(CCc2cc(O)c(O)c(OC)c2)cc1
- pIC50 (MDA-MB-231): 4.09
- pIC50 (HT-29): 4.05
- pIC50 (HepG2 [15]): 3.86
